Assay results as given in ChEMBL document CHEMBL1127095, “Pharmacology of (2R, 4R, 5S)-2-amino-4,5-(1,2-cyclohexyl)-7-phosphonoheptanoic acid (NPC 17742); a selective, systemically active, competitive NMDA antagonist” (Bioorg Med Chem Lett, 1993).

What was measured:
Mus musculus [1] = experiment: Tested for the ability to inhibit the NMDA induced (250mg/Kg, intraperitoneal) seizures in male CF-1 mice when given 30 min prior to NMDA (intraperitoneal); type: functional; conditions: ip
Mus musculus [2] = experiment: Tested for the ability to inhibit the NMDA induced (250mg/Kg, intraperitoneally) seizures in male CF-1 mice given 15 min prior to NMDA (intracerebroventricularly); type: functional
Glutamate NMDA receptor = experiment: Tested for the ability to inhibit the specific binding of [3H]-CGS- 19755 to NMDA recognition sites on rat brain membranes; type: cell membranes, Membrane
Rattus norvegicus [3] = experiment: Tested for the paradigm of drug-discrimination assay (NPC 17742 (4 mg/Kg) from saline) in rats by intraperitoneal administration; type: functional; conditions: ip
Rattus norvegicus [4] = experiment: Tested for the paradigm of drug-discrimination assay in rats by intraperitoneal administration.; type: functional; conditions: ip
Mus musculus [5] = experiment: Tested for the ability to inhibit the […] induced seizures (ip administration); type: functional
Mus musculus [6] = species on record: Mus musculus; experiment: Tested for the ability to inhibit the maximal electroshock induced seizures in mice; type: functional
Mus musculus [7] = species on record: Mus musculus; experiment: Tested for the ability to inhibit the pentylenetetrazole seizures in mice; type: functional
Rattus norvegicus [8] = experiment: Tested for the paradigm of drug-discrimination assay (NPC 17742 (4 mg/Kg; i.p.) from saline) in rat by intraperitoneal administration; type: functional; conditions: ip
Rattus norvegicus [9] = experiment: Tested for the paradigm of drug-discrimination assay in rat by intraperitoneal administration; type: functional; conditions: ip
[10] = Tested for the lethal dose by intraperitoneal administration; type: ADME; conditions: mouse, ip
Rattus norvegicus [11] = experiment: Tested for the paradigm of drug-discrimination assay in rats by intraperitoneal administration; type: functional; conditions: ip
Rodentia sp. = experiment: Tested for the ability to inhibit the cocaine-induced seizures in rodents; type: functional

Compound	ED50 (Mus musculus [1])	ED50 (Mus musculus [2])	IC50 (Glutamate NMDA receptor)	other results
N[C@@H](C[C@@H]1CCCC[C@@H]1CCP(=O)(O)O)C(=O)O	32 mg/kg	8.5 nmol	2.4 µM	
N[C@H](C[C@@H]1CCCC[C@@H]1CCP(=O)(O)O)C(=O)O	33 mg/kg	8.5 nmol	5.6 µM	
N[C@@H](C[C@H]1CCCC[C@H]1CCP(=O)(O)O)C(=O)O	40 mg/kg	44.6 nmol	2.6 µM	
NC(CC1CCCCC1CCP(=O)(O)O)C(=O)O (stereo not given)				ED50 (Rattus norvegicus [3]): 8.9 mg/kg; ED50 (Rattus norvegicus [4]): 18.1 mg/kg
O=C(O)C1CN(CCCP(=O)(O)O)CCN1 (racemic)	2.2 mg/kg	1.2 nmol	0.19 µM	
N[C@H](C[C@H]1CCCCC1CCP(=O)(O)O)C(=O)O (single isomer, unassigned)	1.05 mg/kg	0.28 nmol	0.27 µM	ED50 (Mus musculus [5]): 4.5 mg/kg; ED50 (Mus musculus [6]): 13 mg/kg; ED50 (Mus musculus [7]): 4.5 mg/kg; ED50 (Rattus norvegicus [8]): 1.9 mg/kg; ED50 (Rattus norvegicus [9]): 2.1 mg/kg; LD50 [10]: > 1000 mg/kg
O=C(O)[C@@H]1C[C@H](CP(=O)(O)O)CCN1 (single isomer, unassigned) [SELFOTEL]	2.6 mg/kg	0.19 nmol	0.087 µM	ED50 (Rattus norvegicus [11]): 2.3 mg/kg
NC(C[C@@H]1CCCC[C@H]1CCP(=O)(O)O)C(=O)O (stereo in doubt; (+))		49 nmol	28 µM	
NC(C[C@@H]1CCCC[C@H]1CCP(=O)(O)O)C(=O)O (stereo in doubt; (-))	> 100 mg/kg	20 nmol	4.05 µM	
CC(=CC(N)C(=O)O)CP(=O)(O)O (stereo not given) [CGP-37849]				ED50 (Rattus norvegicus [4]): 0.8 mg/kg; ED50 (Rodentia sp.): 0.1 mg/kg
O=C(O)[C@H]1CN(C/C=C/P(=O)(O)O)CCN1 [MIDAFOTEL]				ED50 (Rattus norvegicus [4]): 0.8 mg/kg
